# Biological target: T1, Human MTHFD2 (Homo sapiens, UniProt P13995)
# T1 construct: residues 36-350 in Uniport ID P13995; His6 (N); made in house; host or cells: E. coli
# T1 sequence (P13995 36-350): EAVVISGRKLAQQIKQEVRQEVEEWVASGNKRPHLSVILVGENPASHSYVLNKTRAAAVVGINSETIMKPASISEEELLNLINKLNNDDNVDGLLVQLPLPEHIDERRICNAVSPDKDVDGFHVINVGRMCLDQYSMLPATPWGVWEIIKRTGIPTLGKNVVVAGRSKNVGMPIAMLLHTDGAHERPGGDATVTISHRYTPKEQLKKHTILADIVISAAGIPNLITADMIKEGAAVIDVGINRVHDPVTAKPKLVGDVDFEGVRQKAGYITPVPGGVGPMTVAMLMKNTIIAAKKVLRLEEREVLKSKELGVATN
# Assay: MTHFD2 Activity Assay (dehydrogenase activity, diaphorase/resazurin coupled fluorescence)
# Assay type: biochemical
# Settings: inhibitory activity (IC50 and/or binding constant); 0.2 nM MTHFD2, 11 concentrations
# How it was run: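 His6-tagged MTHFD2 (res. 36-350), E. coli-expressed, at 0.2 nM preincubated with compound 15 min in Hepes pH 8.0/MgCl2/KH2PO4 buffer; 70 μM CH2-THF, 1 mM NAD+ added with resazurin/diaphorase, 30 min, EDTA stop. Resorufin fluorescence (ex 525/em 598); IC50 from 11-point 4-parameter fit.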
row,SMILES,IC50 [nM]
1,"Cn1c(/C(=N/O)c2ccncc2)nc2c1c(=O)n(Cc1cc3c(Cl)cccc3[nH]1)c(=O)n2C [Example 468, (E)-1-((4-chloro-1H-indol-2-yl)methyl)-8-((hydroxyimino)(pyridin-4-yl)methyl)-3,7-dimethyl-1H-purine-2,6(3H,7H)-dione or (Z)-1-((4-chloro-1H-indol-2-yl)methyl)-8-((hydroxyimino)(pyridin-4-yl)methyl)-3,7-dimethyl-1H-purine-2,6(3H,7H)-dione]",10 to 1000
2,"Cn1c(Nc2ccnc(CN)n2)nc2c1c(=O)n(Cc1cc3c(Cl)cccc3[nH]1)c(=O)n2C [Example 469, 8-(2-(aminomethyl)pyrimidin-4-ylamino)-1-((4-chloro-1H-indol-2-yl)methyl)-3,7-dimethyl-1H-purine-2,6(3H,7H)-dione]",10 to 1000
3,"Cn1c([C@H](N)Cc2cccnc2)nc2c1c(=O)n(Cc1cc3c(Cl)cccc3[nH]1)c(=O)n2C [Example 470, (R)-8-(1-amino-2-(pyridin-3-yl)ethyl)-1-((4-chloro-1H-indol-2-yl)methyl)-3,7-dimethyl-1H-purine-2,6(3H,7H)-dione]",10 to 1000
4,"Cn1c([C@H](N)Cc2ccccn2)nc2c1c(=O)n(Cc1cc3c(Cl)cccc3[nH]1)c(=O)n2C [Example 472, (R)-8-(1-amino-2-(pyridin-2-yl)ethyl)-1-((4-chloro-1H-indol-2-yl)methyl)-3,7-dimethyl-1H-purine-2,6(3H,7H)-dione]",10 to 1000
5,"Cn1c(C(N)c2ccccn2)nc2c1c(=O)n(Cc1cc3c(Cl)cccc3[nH]1)c(=O)n2C (stereo not shown) [Example 473, 8-(amino(pyridin-2-yl)methyl)-1-((4-chloro-1H-indol-2-yl)methyl)-3,7-dimethyl-1H-purine-2,6(3H,7H)-dione]",10 to 1000
6,"Cn1c(Nc2ccncc2)nc2c1c(=O)n(Cc1cc3c(Cl)ccc(F)c3[nH]1)c(=O)n2C [Example 474, 1-((4-chloro-7-fluoro-1H-indol-2-yl)methyl)-3,7-dimethyl-8-(pyridin-4-ylamino)-1H-purine-2,6(3H,7H)-dione]",10 to 1000
7,"Cc1cc(Nc2nc3c(c(=O)n(Cc4cc5c(Cl)cccc5[nH]4)c(=O)n3C)n2C)nc(CCC(N)=O)n1 [Example 475, 3-(4-(1-((4-chloro-1H-indol-2-yl)methyl)-3,7-dimethyl-2,6-dioxo-2,3,6,7-tetrahydro-1H-purin-8-ylamino)-6-methylpyrimidin-2-yl)propanamide]",10 to 1000
8,"Cn1c(=O)n(Cc2cc3c(Cl)cccc3[nH]2)c(=O)c2c1nc1n2CCNC1 [Example 476, 3-((4-chloro-1H-indol-2-yl)methyl)-1-methyl-6,7,8,9-tetrahydropyrazino[1,2-f]purine-2,4(1H,3H)-dione]",10 to 1000
9,"Cn1c(Nc2ccncc2)nc2c1c(=O)n(Cc1cc3c(Cl)ccc(Cl)c3[nH]1)c(=O)n2C [Example 477, 1-((4,7-dichloro-1H-indol-2-yl)methyl)-3,7-dimethyl-8-(pyridin-4-ylamino)-1H-purine-2,6(3H,7H)-dione]",10 to 1000
10,"C/C(=N\O)c1nc2c(c(=O)n(Cc3cc4c(Cl)cccc4[nH]3)c(=O)n2C)n1C [Example 478, (E)-1-((4-chloro-1H-indol-2-yl)methyl)-8-(1-(hydroxyimino)ethyl)-3,7-dimethyl-1H-purine-2,6(3H,7H)-dione or (Z)-1-((4-chloro-1H-indol-2-yl)methyl)-8-(1-(hydroxyimino)ethyl)-3,7-dimethyl-1H-purine-2,6(3H,7H)-dione]",10 to 1000
11,"Cn1c(C(C(N)=O)c2ccncc2)nc2c1c(=O)n(Cc1cc3c(Cl)cccc3[nH]1)c(=O)n2C (stereo not shown) [Example 480, 2-(1-((4-chloro-1H-indol-2-yl)methyl)-3,7-dimethyl-2,6-dioxo-2,3,6,7-tetrahydro-1H-purin-8-yl)-2-(pyridin-4-yl)acetamide]",10 to 1000
12,"C/C(=N/O)c1nc2c(c(=O)n(Cc3cc4c(Cl)cccc4[nH]3)c(=O)n2C)n1C [Example 481, (Z)-1-((4-chloro-1H-indol-2-yl)methyl)-8-(1-(hydroxyimino)ethyl)-3,7-dimethyl-1H-purine-2,6(3H,7H)-dione or (E)-1-((4-chloro-1H-indol-2-yl)methyl)-8-(1-(hydroxyimino)ethyl)-3,7-dimethyl-1H-purine-2,6(3H,7H)-dione]",10 to 1000
13,"CC(CN)c1nc2c(c(=O)n(Cc3cc4c(Cl)cccc4[nH]3)c(=O)n2C)n1C (stereo not shown) [Example 485, 8-(1-aminopropan-2-yl)-1-((4-chloro-1H-indol-2-yl)methyl)-3,7-dimethyl-1H-purine-2,6(3H,7H)-dione]",10 to 1000

# Source: patent US12187728B2 (Raze Therapeutics, Inc., priority 2015, dated 2025)
